Here are results for two compounds from patent publication US6518012B1, “Method for regulating the expression of MHC antigens and CD40 by inhibitors of histone deacetylation” (Health Research, Inc., priority 1999, dated 2003).

Assay [1] has as its system CD40. Kind of assay: Cell surface CD40 by flow cytometry on Colon 26 and J558. The format is cell-based, mouse. On the procedure:
To determine the effect of TSA on cell surface protein expression, the J558 cell line was subjected to flow cytometric analyses as follows. Flow cytometric analyses were conducted by standard methods using cells fixed with 1.0% paraformaldehyde and analyzed on the FACScan (Becton Dickinson). Cell cycle analyses were carried out by flow cytometry with PI staining of genomic DNA. Cells were fixed and permeablized in methanol, treated with RNaseA and analyzed for DNA content by determination of FL3-area on the FACScan. The FL3-area data were analyzed with the ModFit software for determination of the percent cells in each phase of the cell cycle. In some cases, fluorescein isothiocyanate (FITC)-conjugated antibody staining was conducted prior to PI treatment and surface staining was analyzed as a function of cell cycle phase. Apoptosis was analyzed by staining with annexin-V directly conjugated with either FITC or RPE and by sub-G0 analysis of DNA staining. […] Isotype controls were analyzed and, in each case, fell on or below the levels shown for control cells. […] Since all cells were positive for MHC class I expression, the number under the histogram represents -fold change of expression calculated from the mean channel-shift after treatment relative to untreated cells. […]

Assay [2] concerns MHC class II protein on the cell surface. Kind of assay: Cell surface MHC class II protein by flow cytometry on Colon 26 and J558. The format is cell-based, mouse. To be noted: for expression of MHC class II protein on the cell surface: Colon 26 (50 nM TSA 48 hours) and J558 (25 nM TSA 24 hours), flow cytometry, IFNγ 100 U/ml same time. On the procedure: To determine the effect of TSA on cell surface protein expression, the J558 cell line was subjected to flow cytometric analyses as follows. Flow cytometric analyses were conducted by standard methods using cells fixed with 1.0% paraformaldehyde and analyzed on the FACScan (Becton Dickinson). Cell cycle analyses were carried out by flow cytometry with PI staining of genomic DNA. Cells were fixed and permeablized in methanol, treated with RNaseA and analyzed for DNA content by determination of FL3-area on the FACScan. The FL3-area data were analyzed with the ModFit software for determination of the percent cells in each phase of the cell cycle. In some cases, fluorescein isothiocyanate (FITC)-conjugated antibody staining was conducted prior to PI treatment and surface staining was analyzed as a function of cell cycle phase. Apoptosis was analyzed by staining with annexin-V directly conjugated with either FITC or RPE and by sub-G0 analysis of DNA staining. Expression levels without treatment are shown as shaded peaks, IFNγ treated cell expression is plotted by a thin line while the level of expression on TSA treated cells is represented by a heavy line. Isotype controls were analyzed and, in each case, fell on or below the levels shown for control cells. MC and Colon 26 treatments are shown for 50 nM TSA for 48 hours, while J558 treatment is for 25 nM TSA for 24 hours. All IFNγ treatments were 100 U/ml for the same length of time as the corresponding TSA treatment. The percent of cells staining positive for MHC class II or CD40 expression is indicated below each histogram. Since all cells were positive for MHC class I expression, the number under the histogram represents -fold change of expression calculated from the mean channel-shift after treatment relative to untreated cells. Data are representative of at least three independent experiments. Of the 13 markers analyzed on J558 cells, only class I, II and CD40 were enhanced, while levels of several non-expressed antigens were not elicited (including CD25, B7 integrin, CD40L, H2K^k and IA^k) while other markers, which were expressed, were not altered (including CD44, CD54, CD80, CD86 and CD119) by TSA treatment. […] The highest expression (21-fold induction) was achieved on J558 cells after 24 hr by 25 nM TSA. […] The separation of control and IFNγ curves in the CD40, J558 experiment depicted in FIG. 8 represents a mean channel fluorescence difference of only 1.3 and was not seen on independent replicates of the experiment.
TSA has been described as a cell cycle inhibitor that induces both G1 and especially G2/M blocks (Bestor, 1998, Nature, 393:311-312; Yoshida et al., 1988, Exp. Cell Res. 177:122-131). MHC class II, but not class I, has been reported (Inokoshi et al., 1999, Biochem. Biophys. Res. Commun., 256:372-376; Monroe et al., 1983, J. Immunol., 130:626-631) to be regulated differentially during the cell cycle. Therefore the cell cycle of the cell lines used in the present invention was analyzed by DNA staining and flow cytometry with each of the treatment conditions under study. […] Two additional methods were used to analyze cell cycle effects on MHC expression. Since it has been reported that TSA arrests cell cycle mainly in G2/M, and class II has been reported to accumulate in G2/M (Monroe et al., 1983, supra), experiments were designed to essentially arrest 100% of J558 cells in G2/M with nocodazole. […] From the above experiments, it can be concluded that DAIs have specific effects on MHC class I and II, and CD40 gene expression, which is likely not a result of its action on the cell cycle.

Assay [3] relates to class II transactivator (CIITA) mRNA. The assay is described as follows: CIITA mRNA by standard PCR and real-time PCR in human cell lines JAR and SK-N-MC. The format is cell-based. The following applies: for CIITA mRNA fold change: MC cells, real time PCR up to 60 cycles, 100 nM TSA 24 hr, NaBu 1 mM 48 hr. On the procedure: (§1) To determine the effect of DAIs on HLA-DRα mRNA, cytoplasmic RNA was isolated from untreated and treated human trophoblast cell line JAR using standard techniques (RNeasy System from Qiagen). Standard PCR was performed using primers for DR and CIITA (Murphy et al., 1998, Reprod Dev., Chin et al., 1994, Immunity 1:687-697). Other primers used included human and mouse GAPDH (Clontech) and forward primer 5′-[…]-3′ (SEQ ID NO:25) and reverse primer 5′-[…]-3′ (SEQ ID NO:26) for mouse CIITA. PCR products were amplified with GOLD Taq for 10 min at 95° C., then 95° C. for 30 sec, 60° C. for 60 sec (25-45 cycles), then an extension at 60° C. for 10 min.
(§2) Oligonucleotide primers and TaqMan 5′-6-FAM and 3′-TAMRA-labeled probes were synthesized in the RPCI Biopolymer Facility. Primer and probe sequences are listed under Sequence Listing and also in FIG. 9. Sequences were designed using standard software (PrimerExpress software, PE Biosystems) except for human GAPDH.
(§3) Realtime PCR reactions contained TaqMan Universal PCR Master Mix (PE Biosystems), primers at 300 nM, and probes at optimal concentrations (150-225 nM depending on gene). Reactions were carried out on an ABI PRISM 7700 Sequence Detection System (PE Biosystems). Cycling conditions were 50° C. for 2 min, 95° C. for 10 min, then 60 cycles of 95° C. for 15 sec, 60° C. for 1 min. PCR samples were run in triplicate. The detection system and quantitative PCR was carried out as described by Williamson et al. (1995, Genet Res. 65:83-93). The threshold cycle number CT corresponded to the cycle number, at which the fluorescent emission reaches 10 standard deviations above the mean fluorescent emission, measured during the early ‘baseline’ cycles of the PCR. The CT values for triplicates were averaged and normalized to GAPDH levels. […] Assuming reverse transcription efficiencies were approximately the same for each sample, relative amounts of mRNA using the comparative CT method. Fold changes in mRNA levels were calculated as 2^x where x=the difference between normalized CT values of the control and experimental samples.
[…] RNA was isolated and real time quantitative RT-PCR was carried out. The fold increase in mRNA over the control was calculated.

The subject of assay [4] is HLA-DRα mRNA. The assay is described as follows: HLA-DRα mRNA by standard PCR and real-time PCR in human cell lines JAR and SK-N-MC. The format is cell-based. The following applies: JAR; for fold increase in HLA-DRα (MHC class II) mRNA over the control: real time quantitative RT-PCR, 100 nM TSA, IFNγ 100 U/ml or combination for 12 hours, sodium butyrate (FIG. 2). Here is the method: as §1, §2, §3
To evaluate the effects of DAIs on human cells, the human trophoblast cell line was treated with 100 nM Trichostatin A (TSA), IFNγ (100 U/ml) or a combination of TSA and IFNγ for 12 hours. RNA was isolated and real time quantitative RT-PCR was carried out. The fold increase in mRNA over the control was calculated.
For orientation: Real-time PCR tracks product formation cycle by cycle.

The subject of assay [5] is DP and DQ isotypes of MHC class II mRNA. Kind of assay: mRNA for DP and DQ isotypes of MHC class II in SK-N-MC. The format is cell-based, human. To be noted: data not shown.
Where [6] appears, read: SK-N-MC, routine RT-PCR at 35 cycles, 100 nM TSA 24 hours, 1 mM NaBu 48 hours, IFNγ.

For the compound `CC(/C=C/C(=O)NO)=C\[C@@H](C)C(=O)c1ccc(N(C)C)cc1` [TSA, Trichostatin A], the “expression of CD40 on cell surface” value in assay [1] (Colon 26 and J558, flow cytometry) is reported as “induced expression”. Also, in assay [2], the “expression of MHC class II protein on the cell surface” value is “significantly induced”. Also, the “cells positive for class II expression” value is on record as 53% in assay [2] (Colon 26, TSA concentration used in FIG. 8 (50 nM for 48 hours)) and 87% in assay [2] (J558, TSA concentration used in FIG. 8 (25 nM for 24 hours)). Moreover, in assay [2] (J558, G2/M arrest experiment with nocodazole, data not shown), the “MHC class II positive cells” value came out at 75%. The “induction of cell surface MHC class II, mean channel fluorescence” value in assay [2] (J558 cells, 24 hr, 25 nM TSA, highest expression) is reported as 21 fold. Besides, the CIITA transcription entry in assay [3] (JAR, standard PCR at 35 cycles, 100 nM or 250 nM TSA or 1 mM sodium butyrate) is “undetectable”; in assay [3] (setting [6]), “undetectable”. For the same compound, in assay [3] (IFNγ), the “CIITA mRNA fold change” value is reported as “no increase”. Besides, in assay [4], the “fold increase in HLA-DRα (MHC class II) mRNA over the control” value turned out to be 15 fold. Moreover, in assay [4] (standard PCR, 100 nM or 250 nM TSA or 1 mM sodium butyrate), the “levels of mRNA for DR” value is listed as “substantial increase”. Besides, the “mRNA for the DP and DQ isotypes of MHC class II” value in assay [5] was “induced”.

As to “IFNγ: gamma-interferon, cytokine used as comparator at 100 U/ml”, in assay [1] (J558, IFNγ 100 U/ml 24 hours, not seen on independent replicates), the “mean channel fluorescence difference between control and IFNγ curves, CD40” value was found to be 1.3. The “expression of MHC class II protein on the cell surface” value in assay [2] is recorded as “did not induce”. For the same compound, in assay [3] (IFNγ), the “CIITA mRNA fold change” value is listed as 4 fold. Further, the CIITA transcription result in assay [3] (setting [6]) is recorded as “not detected”. Also, the “fold increase in HLA-DRα (MHC class II) mRNA over the control” value in assay [4] is “did not induce”.
